Test results published in patent US12161669B2, “Compositions and methods for cell targeting therapies” (UMC UTRECHT HOLDING B.V., priority 2017, dated 2024).

What was measured:
RhoB [1] = experiment: Intracellular RhoB distribution in human dendritic cells; type: cell-based; details: human dendritic cells treated with ABP
Procedure: For intracellular immunofluorescence staining of RhoB, cells were treated with pamidronate overnight (where indicated) and were allowed to attach onto coverslips precoated with poly-Llysine (Sigma-Aldrich). Cells were subsequently permeabilized with Permeabilizing solution 2 (BD), blocked with blocking serum (50% pooled normal human serum in PBS), and stained with a rabbit polyclonal anti-RhoB antibody (AbCam) followed by a secondary Goat anti-Rabbit IgG Alexa Fluor 488-conjugated antibody (Jackson ImmunoResearch). Cells were washed with blocking serum, fixed with 4% paraformaldehyde, stained with DAPI (where indicated), and mounted onto microscopy slides using Mowiol. Images were acquired using a Zeiss confocal laser scanning microscope LSM 700. Ratios between nuclear and extranuclear signal of RhoB was determined using Volocity software (PerkinElmer) or Image J software, where DAPI staining was used, when available, to mark nuclei.

CD277 [2] = experiment: Flow cytometry FRET of CD277 homodimerization in HEK 293 cells; type: cell-based; details: medium vs ABP
Procedure: In order to determine homodimerization of CD277 molecules, cells were co-stained with equal amount of PE-conjugated anti-CD277 (donor) and […]680-conjugated anti-CD277 (acceptor) and samples were measured using a FACS Canto-II flow cytometer (BD). FRET efficiency was calculated with equations according to Sebestyen and colleagues (Sebestyen et al., 2002) where donor fluorescence was excited at 488 nm and detected at 576±26 nm, acceptor fluorescence was excited at 635 nm and detected at 780±60 nm, whereas FRET intensity was excited at 488 nm and detected at 780±60 nm. Correction factors for the spectral overlap between the different fluorescence channels were obtained from data measured on unlabeled and single-labeled cells.

Daudi cells = experiment: sTCR YG-bead conjugation to Daudi cells; type: binding; details: with vs without PAM
Source text: The extracellular domains of the TCR chains were amplified from synthetic DNA encoding the full length TCRs. The domain boundaries were based on ones published before for Vγ9Vδ2 TCR G115. The TCR chains were ligated in to a modified pBullet vector containing a μ-phosphatase signal peptide at the 5′ end and fos zipper at the 3′ end of the construct. The TCRγ chains were ligated in a modified pBullet vector containing a μ-phosphatase signal peptide at the 5′ end and at the 3′ a jun zipper followed by a biotin acceptor peptide and a poly-histidine tag. Synthetic DNA encoding for the bacterial biotin ligase BirA was also ligated in a pBullet vector containing a signal peptide. The expression of soluble γδTCRs was done in Freestyle 293-F cells (ThermoFisher). In short, plasmids containing TCRδ, TCRγ and BirA were mixed into a 45:45:10 ratio, combined with polyethylenimine (PEI) in a 2:3 ratio and incubated for 15′ at room temperature. […]
For tetramer and dextramer staining, 1.0*10^5 cells were incubated with 30 ul tetramer or dextramer solution (100 nM with respect to SA-PE) for 30 minutes at R.T. For beads staining, 7.5*10^4 cells were incubated with 20 μl sTCR-YG-beads (0.33 mg beads/ml) for 30. […] Samples were washed once with 1% formaldehyde and analyzed on a BD FACSCanto II (BD). γδTCR enrichment to synapse and conjugate formation

CD277 [3] = experiment: Flow cytometry FRET between BODIPY FL-stained membrane and anti-CD277 mAbs (CD277 conformational change), HEK 293 cells; type: cell-based; details: ABP vs unstimulated
Procedure: Conformational change of BTN3 molecule was determined similarly as described in ([…] et al., 2001). Cells were labeled with 5 ug/ml BODIPY-FL DPHE (donor) (Life Technologies) for 10 minutes on ice and then 10 minutes at 37 C, then washed extensively with ice-cold PBS. Cells were subsequently labeled with mouse anti-CD277 mAbs (either clone #20.1 or #103.2) and Alexa594-conjugated Goat anti-Mouse Fab fragments (Jackson ImmunoResearch). After washing, cells were resuspended in ice cold PBS and measured immediately using a FACS Canto-II flowcytometer (BD). FRET efficiency was calculated from the fractional decrease of the donor fluorescence in the presence of the acceptor.

RhoB and CD277 = experiment: Flow cytometry FRET of RhoB-CD277 association in HEK 293 cells; type: cell-based; details: ABP treated vs untreated
Procedure: To study association of RhoB and BTN3 molecules, cells were permeabilized by using Permeabilization solution 2 (BD), then blocked with PBS containing 50% Human serum and labeled with rabbit polyclonal anti-RhoB antibody (AbCam). After washing with PBS, samples were labeled with Alexa594-conjugated Goat anti-Rabbit IgG (acceptor) (Jackson ImmunoResearch) and CD277-PE (donor) (BT3.1, Biollegend), respectively. The donor fluorescence was measured using a FACS Canto-II flow cytometer (BD) where donor fluorescence of the double-labeled samples was compared with that of samples labeled only with donor antibody. FRET efficiency was calculated from the fractional decrease of the donor fluorescence in the presence of the acceptor.

RhoB [4] = experiment: Intracellular RhoB distribution by confocal microscopy in cell lines; type: cell-based; details: cell lines (EBV-LCL 48)
Procedure: For intracellular immunofluorescence staining of RhoB, cells were treated with pamidronate overnight (where indicated) and were allowed to attach onto coverslips precoated with poly-Llysine (Sigma-Aldrich). […] Cells were washed with blocking serum, fixed with 4% paraformaldehyde, stained with DAPI (where indicated), and mounted onto microscopy slides using Mowiol. Images were acquired using a Zeiss confocal laser scanning microscope LSM 700. Ratios between nuclear and extranuclear signal of RhoB was determined using Volocity software (PerkinElmer) or Image J software, where DAPI staining was used, when available, to mark nuclei.

CD277 and F-actin = experiment: Colocalization of CD277 and F-actin in HEK 293 cells; type: cell-based; details: single agent vs medium
Procedure: To determine colocalization between BTN3 molecules and the actin cytoskeleton, HEK 293 cells were grown onto poly-L-lysin-coated coverslips and pretreated with either calpeptin (2 μg/ml) or C3 transferase (20 μg/ml) prior to treating samples with pamidronate Cells were fixed, permeabilized and BTN3 and F-actin were stained with DyLight 680-conjugated BTN3 antibody (clone BT3.1, Novus Biologicals) and Fluorescein-coupled phalloidin (Sigma), respectively. The correlation coefficient between BTN3 and F-actin signal was determined as a measure of colocalization using Volocity software.

NCCC(O)(P(=O)(O)O)P(=O)(O)O [pamidronate]
RhoB exclusion from the nucleus (RhoB [1]): excluded from the nucleus in human | pairing of CD277 molecules (homodimer FRET) (CD277 [2]): insensitive | intensity of TCR-YG-bead conjugation to Daudi cells (Daudi cells): did not change | FRET between stained membrane and anti-CD277 antibodies (20.1, 103.2) (CD277 [3]): marked reduction in FRET signals | close association between RhoB and CD277 (FRET efficiency) (RhoB and CD277): increased markedly | Re-localization of RhoB from the nucleus or nuclear membrane to extranuclear sites (RhoB [4]): induced | colocalization between CD277 and F-actin (CD277 and F-actin): markedly reduced
